Earlier results, collected in article PMC10320121 (Nucleic Acids Research, 2023).

## N#Cc1ccc2[nH]cc(CCCCN3CCN(c4ccc5oc(C(N)=O)cc5c4)CC3)c2c1 [Vilazodone, vilazodone]
  oral bioavailability (F): 47.45%
